The record followed here is patent publication US20230414715A1, “TRAIL COMPOUNDS FOR REDUCING CANCER TREAMENT SIDE EFFECTS” (BROWN UNIVERSITY, priority 2022, published 2023).

Series [1] has as its system lung tissue in irradiated C57B1/6 mice. Description: Immunohistochemistry of irradiated lung tissue. Format: in vivo, mouse. From the text: Paraffin embedded sections of tissue were deparaffinized in xylene and rehydrated through graded ethanol solutions to phosphate-buffered saline (PBS). Heat-induced antigen retrieval (in 0.01 M citrate buffer; pH 6.0), endogenous peroxidase blocking (3% H202), and blocking were done using a standard protocol. […] Slides were developed with diaminobenzidine substrate (Vector Laboratories SK-4100) and counterstained with hematoxylin (Richard Allen Scientific). Slides were scanned (Olympus VS200) and representative brightfield images were taken and analyzed with OlyVIA software.

Another series relates to serum cytokines. Description: Serum cytokine analysis (Luminex) of irradiated mice. The format is in vivo, mouse. To be noted: treated versus control. As for the experimental part:
(§1) Animal studies were carried out at Brown University facilities with approval from Brown University IACUC. C57B1/6 mice (Taconic), mice with bi-allelic loss of TRAIL Death Receptor-(DR5-/-) in a C57B1/6 background, and mice with bi-allelic loss of TRAIL (TRAIL -/-) in a C57B1/6 background were given a single whole-thorax x-ray (Philips RT250) irradiation dose of 20 Gy with shielding of other organs. 8-15-week-old male and female mice of each genotype were used. […] Treatment was continued for two weeks, where TLY012 was administered twice a week and ONC201 was administered once a week. For each genetic background, two mice received a control PO, two mice received TLY012 IP, and two mice received ONC201 PO. Mice were weighed twice a week, and 13 days post-irradiation all mice were euthanized. Organs were harvested from the mice and 600 μL of blood was collected via cardiac puncture for serum cytokine analysis. Organs were preserved in 10% formalin then embedded in paraffin and sectioned at a distance of 5 μm. […] TRAIL-/- female mice were also subjected to a survival study with a single whole-thorax radiation doses of 15 Gy or 18 Gy treated with the same regimen of TLY012 or control (n=2/radiation dose/treatment) (FIG. 3B). In order to determine the lethal dose of radiation for C57B1/6 mice, female C57B1/6 mice were treated with a single dose of whole-thorax irradiation of 25 Gy in a survival study where they were treated with either TLY012 or remained control (n=6/treatment) (FIG. 3C).
All mouse serum samples were analyzed by a custom R&D systems Murine Premixed Multi- Analyte Kit (R&D Systems, Inc., Minneapolis, MN). The panel was run on a Luminex 200 Instrument (Luminex Corporation, Austin, TX) according to the manufacturer's instructions. Murine serum levels of Angiopoietin-2, BAFF/BLyS/TNFSF13B, CCL2/JE/MCP-1, CCL3/MIP-1 alpha, CCL4/MIP-1 beta, CCL5/RANTES, CCL7/MCP-3/MARC, CCL11/Eotaxin, CCL12/MCP-5, CCL20/MIP-3 alpha, CCL21/6Ckine, CCL22/MDC, Chitinase 3-like 1, CXCL1/GRO alpha/KC/CINC-1, CXCL10/IP-10/CRG-2, CXCL12/S DF- 1 alpha, Dkk-1, FGF basic/FGF2/bFGF, GDF-15, GM-CSF, Granzyme B, IFN-gamma, IGF-I/IGF-1, IL-1 alpha/IL-1F1, IL-1 beta/IL-1F2, IL-2, IL-3, IL-4, IL-6, IL-7, IL-10, IL-13, IL-16, IL-17/IL-17A, IL-27, IL-33 M-CSF, MMP-3, MMP-8, MMP-12, Prolactin, TWEAK/TNFSF12, VEGF, and VEGFR2/KDR/Flk-1 were measured. Analyte values were reported in picograms per milliliter (pg/mL). […] Latent TGF-β was activated in samples using 1 N HCl and samples were neutralized with 1.2 N NaOH/0.5 M HEPES. Samples were assayed immediately after neutralization.

The next series deals with duodenum, liver or heart. Description: H&E of duodenum, liver and heart of irradiated, treated mice. To be noted: 20 Gy irradiated mice, 2 weeks treatment. As for the experimental part:
as §1, with “In order to determine the lethal dose of radiation for C57B1/6 mice, female C57B1/6 mice were treated with a single dose of whole-thorax irradiation of 25 Gy in a survival study where they were treated with either TLY012 or remained control (n=6/treatment) (FIG. 3C).” left out

The next series relates to TRAIL-/- female mice. Nature of the series: In vivo respiration-gated microCT imaging of lungs. On the set-up: species or system mouse. To be noted: 15 Gy. As for the experimental part:
For μCT imaging, all mice were imaged in a SkyScan 1276 in vivo microCT scanner (Bruker, Kontich, Belgium) under isoflurane at 41 μm voxels with a 0.7° rotation step in supine position. […] Mice underwent μCT scans 13 days post irradiation. Image-based respiratory gating was used to sort images into gates based on specific time points of the breathing cycle to minimize motion artifact in the final reconstruction. For 3D reconstruction, Dataviewer version 1.5.4 (Bruker) was used to sort the CT images using the function “Listmode Scan” grouping the images in each bin where bin 0=maximum exhale and bin 3=maximum inhale (empty views <10%). Once the images were sorted, the listmode dataset was opened in NRecon software (Bruker) where the ROI undergoes 3D reconstruction. Reconstructed images were then analyzed in CTAn software (Bruker) where the volume of the lungs was calculated during max inhale and max exhale. The plugins in the custom processing page were used to create an ROI that separated the lungs from the rest of the image. 3D reconstructed images of the lung only were then opened in CTvol software (Bruker) where the color (red=69%, green=50%, blue=50%) and the opacity (7%) of the lung was changed.

Where [2] appears, read: irradiated rescued versus irradiated control lung tissues.
[3] abbreviates: normal or inflamed lung, treated versus irradiated control.

Turning to “TLY012: N-terminal PEGylated recombinant human TRAIL; PEGylated trimeric TRAIL formulation”, in series [1] (setting [2]), the NFkB result was “no differences” and the proliferation result is reported as “no differences”. In series [1] (setting [3]), the “DNA double strand break marker gamma-H2AX” value was “no difference” and the “T-cell infiltration (CD3-epsilon)” value is on record as “no difference”. For the same substance, the collagen in lungs entry in series [1] (rescued lungs versus irradiated control) was “less collagen”. For the same substance, in the series with serum cytokines, the “CCL3/MIP-lalpha serum level” value is recorded as “increased”, the CXCL1 serum level entry is “increased”, the “FGF basic serum level” value is listed as “increase” and the GDF-15 serum level entry is recorded as “increased”. In the series on serum cytokines, the IL6 serum level result is “increased” and the MMP-8 serum level entry was “increased”. The “toxicities in duodenum, liver or heart” value in the series on duodenum, liver or heart is “No obvious toxicities”. In the series on TRAIL-/- female mice (same opacity conditions, FIG. 7B), the “3D reconstruction of lungs: clarity and visible airway space” value is “overall clearer and have more visible airway space”. Also, the “lung expansion upon inhalation (μCT)” value with TRAIL-/- female mice (twice weekly treatment, two weeks post irradiation, versus 15 Gy control, FIG. 7A) was “expand more upon inhalation”.
